Test results from patent US5710129A, “Inhibitors of SH2-mediated processes” (Ariad Pharmaceuticals, Inc., priority 1995, dated 1998).
Square brackets hold non-standard residues; d marks the D form. Peptide text beside a SMILES is read from it. * marks the point of attachment. Tyr(3,5-(NO2)2) = N[C@@H](Cc1cc([N+](=O)[O-])c(O)c([N+](=O)[O-])c1)C(=O)O; 1Nal = N[C@@H](Cc1cccc2ccccc12)C(=O)O; 2Nal = N[C@@H](Cc1ccc2ccccc2c1)C(=O)O; 2Naphthoyl = O=C(c1ccc2ccccc2c1)*; Hydrocinnamoyl = O=C(CCc1ccccc1)*; X1 = CC(CC(=O)*)c1ccccc1; PhAc = O=C(Cc1ccccc1)*

Columns and labels:
pp70^ZAP (1-259) = molecular target: T1, pp70^ZAP (1-259) (Homo sapiens, UniProt P43403); assay: Tandem ZAP competitive binding assay, surface plasmon resonance (BIAcore); settings: for IC50: 10 nM protein, ζ-chain ITAM-1 of human T-cell receptor as ligand, read-out: N,CZap IC-50
T1 sequence (P43403 1-259): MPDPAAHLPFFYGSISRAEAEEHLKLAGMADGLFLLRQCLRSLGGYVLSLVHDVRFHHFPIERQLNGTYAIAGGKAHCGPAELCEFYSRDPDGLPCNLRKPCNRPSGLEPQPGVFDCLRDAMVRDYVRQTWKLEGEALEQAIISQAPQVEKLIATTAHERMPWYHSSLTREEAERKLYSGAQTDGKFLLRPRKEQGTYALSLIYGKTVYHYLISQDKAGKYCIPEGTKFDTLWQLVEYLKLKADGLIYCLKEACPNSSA
Method: (§1) Binding was measured by competition using surface plasmon resonance (Malmqvist, M. (1993) Current Opinions in Immunology 5, 282-286) as implemented in the BIAcore Biosensor (Pharmacia Biosensor, Piscataway, N.J.). […] Results were compared to binding measured in the absence of competitor and expressed as percent inhibition. IC50values reflect the concentration of inhibitor required to reduce binding by 50%. Specifics of individual assays are described below. All asssays were run in HEPES Buffered Saline (HBS) composed of 10 mM HEPES (pH 7.4)/150 mM NaCl/3.4 mM EDTA/0.05% Surfactant P20at 25° C. and a flow rate of 5 uL min^-1.
A pp70^ZAP peptide ligand corresponding to the .zeta.-chain ITAM-1 of the human T-cell receptor [NQLY(PO4)NELNIGRREEY(PO4)DVLD] [SEQ ID NO:20] was synthesized as a part of a larger peptide [Ac-KGGNQLY(PO4)NELNIGRREEY-(PO4)DVLD-NH2 ] [SEQ ID NO:21] and used to generate a ZAP-sensitive biosensor surface. Specifically, a Biosensor Chip CM5was activated with 200 mM EDC/50 mM NHS to generate a surface reactive to primary amines and the ITAM peptide immobilized through the N-terminal lysine. Unreacted sites were blocked with ethanolamine (1M in water) and the chip cleaned of non-covalently bound peptide using 6M guanidine hydrochloride. Assays were run in HBS using 10 nM pp70^ZAP (1-259)±test inhibitor. (The designation "b22" indicates use of a corresponding γ-chain ITAM for the .zeta.-chain ITAM.)

pp60^src (144-251) = molecular target: T2, pp60^src (144-251) (Homo sapiens, UniProt P12931); assay: Src competitive binding assay, surface plasmon resonance (BIAcore); settings: 270 nM protein; hamster Middle-T antigen phosphopeptide as ligand; read-out: Src IC-50
T2 construct: Assays were run in HBS using 270 nM pp60^src (144-251)
T2 sequence (P12931 144-251): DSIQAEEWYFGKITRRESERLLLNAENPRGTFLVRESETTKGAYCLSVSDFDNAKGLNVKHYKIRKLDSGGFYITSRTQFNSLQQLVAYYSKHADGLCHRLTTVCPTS
Method: as §1
A p60^src peptide ligand corresponding to the hamster Middle-T antigen [QY(PO4)EEIPI] [SEQ ID NO:22] was synthesized as a part of a larger peptide [Ac-KGGQY(PO4)EEIPI-NH2 ] [SEQ ID NO:23] and used to generate a src-sensitive biosensor surface as described above for tandem ZAP. Assays were run in HBS using 270 nM pp60^src (144-251)±test inhibitor.

pp72^syk (1-265) = molecular target: T3, pp72^syk (1-265) (Homo sapiens, UniProt P43405); assay: Tandem Syk competitive binding assay, surface plasmon resonance (BIAcore); settings: 20 nM protein, γ-chain ITAM of human FcεRI as ligand; for IC50: read-out: N,CSyk IC-50
T3 construct: Assays were run in HBS using 20 nM pp72^syk (1-265)
Method: as §1
A pp72^syk peptide ligand corresponding to the γ-chain ITAM of human Fcε RI [DGVY(PO4)TGLSTRNQETY(PO4)ETLK] [SEQ ID NO:18] was synthesized as part of a larger peptide [Ac-CGGDGVY(PO4)TGLSTRNQETY-(PO4)ETLK-NH2] [SEQ ID NO:19] and used to generate a Syk-sensitive biosensor surface. Specifically, a Biosensor Chip CM5was activated with 200 mM ethyl-3-(3-dimethylaminopropyl)-carbodiimide hydrochloride (EDC)/50 mM N-hydroxysuccinimide (NHS) to generate a surface reactive to primary amines; treated with ethylenediamine to generate a surface rich in primary amines; activated with m-maleimidobenzoyl-N-hydroxysuccinimide ester (sulfo-MBS; 50 mM in 25 mM NaHCO3) to generate a surface reactive to free thiols; and the ITAM peptide immobilized through the N-terminal cysteine. Unreacted sites were blocked with β-mercaptoethanol and the chip cleaned of noncovalently bound peptide using 6M guanidine hydrochloride. Assays were run in HBS using 20 nM pp72^syk (1-265)±test inhibitor.

pp72^syk (163-265) = molecular target: T4, pp72^syk (163-265) (Homo sapiens, UniProt P43405); assay: C-Syk competitive binding assay, surface plasmon resonance (BIAcore); settings: 270 nM protein; hemiphosphorylated γ-chain ITAM of human FcεRI as ligand; read-out: CSyk IC-50
T4 construct: Assays were run in HBS using 270 nM pp72^syk (163-265)
Method: as §1
A pp72^syk peptide ligand corresponding to a hemiphosphorylated γ-chain ITAM of human Fcε RI [DGVY(PO4)TGLSTRNQETYETLK] was synthesized as part of a larger peptide [Ac-CGGDGVY(PO4)TGLSTRNQETYETLK-NH2 ] and used to generate a C-Syk-sensitive biosensor surface as described above for tandem syk. Assays were run in HBS using 270 nM pp72^syk (163-265)±test inhibitor.

| Compound | N,CZap inhibition (pp70^ZAP (1-259); @ 100 (μM)) | IC50 (pp60^src (144-251)) | N,CSyk 1%/Min (pp72^syk (1-265)) | IC50 (pp72^syk (1-265)) | IC50 (pp72^syk (163-265)) | IC50 (pp70^ZAP (1-259)) |
| --- | --- | --- | --- | --- | --- | --- |
| CC(C)C[C@H](NC(=O)[C@@H](NC(=O)[C@H](CCC(=O)O)NC(=O)[C@H](Cc1cc([N+](=O)[O-])c(O)c([N+](=O)[O-])c1)NC(=O)c1ccc2ccccc2c1)[C@@H](C)O)C(N)=O (2Naphthoyl-[Tyr(3,5-(NO2)2)]ETL-NH2) | ni | > 1000 µM | 67 µM | 380 µM | 35 µM |  |
| CC(=O)N[C@@H](Cc1ccccc1)C(=O)N[C@@H](Cc1cc([N+](=O)[O-])c(O)c([N+](=O)[O-])c1)C(=O)N[C@@H](CCC(=O)O)C(=O)N[C@H](C(=O)N[C@@H](CC(C)C)C(N)=O)[C@@H](C)O (Ac-F[Tyr(3,5-(NO2)2)]ETL-NH2) |  |  |  | > 100 µM | 200 µM | > 1000 µM |
| CC(=O)N[C@@H](Cc1cccc2ccccc12)C(=O)N[C@@H](Cc1cc([N+](=O)[O-])c(O)c([N+](=O)[O-])c1)C(=O)N[C@@H](CCC(=O)O)C(=O)N[C@H](C(=O)N[C@@H](CC(C)C)C(N)=O)[C@@H](C)O (Ac-[1Nal][Tyr(3,5-(NO2)2)]ETL-NH2) |  | > 500 µM |  | 800 µM | 200 µM | > 100 µM |
| CC(=O)N[C@@H](Cc1ccc2ccccc2c1)C(=O)N[C@@H](Cc1cc([N+](=O)[O-])c(O)c([N+](=O)[O-])c1)C(=O)N[C@@H](CCC(=O)O)C(=O)N[C@H](C(=O)N[C@@H](CC(C)C)C(N)=O)[C@@H](C)O (Ac-[2Nal][Tyr(3,5-(NO2)2)]ETL-NH2) |  |  |  | > 100 µM | > 500 µM | > 500 µM |
| CC(=O)N[C@H](Cc1ccccc1)C(=O)N[C@@H](Cc1cc([N+](=O)[O-])c(O)c([N+](=O)[O-])c1)C(=O)N[C@@H](CCC(=O)O)C(=O)N[C@H](C(=O)N[C@@H](CC(C)C)C(N)=O)[C@@H](C)O (Ac-[dF][Tyr(3,5-(NO2)2)]ETL-NH2) |  | 500 µM |  |  | 50 µM | > 100 µM |
| CC(C)C[C@H](NC(=O)[C@@H](NC(=O)[C@H](CCC(=O)O)NC(=O)[C@H](Cc1cc([N+](=O)[O-])c(O)c([N+](=O)[O-])c1)NC(=O)CCc1ccccc1)[C@@H](C)O)C(N)=O (Hydrocinnamoyl-[Tyr(3,5-(NO2)2)]ETL-NH2) |  | 410 µM |  | 460 µM | 11 µM | > 100 µM |
| CC(C)C[C@H](NC(=O)[C@@H](NC(=O)[C@H](CCC(=O)O)NC(=O)[C@H](Cc1cc([N+](=O)[O-])c(O)c([N+](=O)[O-])c1)NC(=O)Cc1ccccc1)[C@@H](C)O)C(N)=O (PhAc-[Tyr(3,5-(NO2)2)]ETL-NH2) |  | > 1000 µM |  | > 1000 µM | 70 µM | > 1000 µM |
| CC(C)C[C@H](NC(=O)[C@@H](NC(=O)[C@H](CCC(=O)O)NC(=O)[C@H](Cc1cc([N+](=O)[O-])c(O)c([N+](=O)[O-])c1)NC(=O)CC(C)c1ccccc1)[C@@H](C)O)C(N)=O (stereo partly drawn) (X1-[Tyr(3,5-(NO2)2)]ETL-NH2) |  |  | 14 µM |  |  |  |
